Calls of active or inactive are those of the source. The rule behind the calls is not given here.

In general, IC50 refers to the point on the concentration scale where inhibition reaches its midpoint. What is called inhibition is the change of the read-out against control, counted positive when it falls. A lower inhibition goes with a weak effect.

Test [1] concerns C2C12. The experiment in a line: Induction of osteogenic differentiation in mouse C2C12 cells assessed as ALP activity preincubated with compound in the presence of BMP-4 for 72 hrs followed by substrate addition and measured after 1 hrs by luminescence based assay. In kind it is functional, cell-based. The note with it: time 73.0 hrs.
The target in test [2] is Casein kinase I isoform delta (Homo sapiens, UniProt P48730). The experiment in a line: Inhibition of CK1delta (unknown origin).
In test [3] the test system is C2C12. The experiment in a line: Induction of osteogenic differentiation in mouse C2C12 cells assessed as ALP activity at 5 uM preincubated with compound in the presence of BMP-4 for 72 hrs followed by substrate addition and measured after 1 hrs by luminescence based assay relative to control. In kind it is functional. The note with it: time 73 hrs.
For test [4], the target named is Phosphatidylinositol 3-kinase catalytic subunit type 3 (Homo sapiens) (UniProt Q8NEB9). The experiment in a line: Inhibition of VPS34 (unknown origin) at 10 uM relative to control.
In test [5] the target is T1, Phosphatidylinositol 4,5-bisphosphate 3-kinase catalytic subunit delta isoform (Homo sapiens) (UniProt O00329).
T1 sequence (whole entry): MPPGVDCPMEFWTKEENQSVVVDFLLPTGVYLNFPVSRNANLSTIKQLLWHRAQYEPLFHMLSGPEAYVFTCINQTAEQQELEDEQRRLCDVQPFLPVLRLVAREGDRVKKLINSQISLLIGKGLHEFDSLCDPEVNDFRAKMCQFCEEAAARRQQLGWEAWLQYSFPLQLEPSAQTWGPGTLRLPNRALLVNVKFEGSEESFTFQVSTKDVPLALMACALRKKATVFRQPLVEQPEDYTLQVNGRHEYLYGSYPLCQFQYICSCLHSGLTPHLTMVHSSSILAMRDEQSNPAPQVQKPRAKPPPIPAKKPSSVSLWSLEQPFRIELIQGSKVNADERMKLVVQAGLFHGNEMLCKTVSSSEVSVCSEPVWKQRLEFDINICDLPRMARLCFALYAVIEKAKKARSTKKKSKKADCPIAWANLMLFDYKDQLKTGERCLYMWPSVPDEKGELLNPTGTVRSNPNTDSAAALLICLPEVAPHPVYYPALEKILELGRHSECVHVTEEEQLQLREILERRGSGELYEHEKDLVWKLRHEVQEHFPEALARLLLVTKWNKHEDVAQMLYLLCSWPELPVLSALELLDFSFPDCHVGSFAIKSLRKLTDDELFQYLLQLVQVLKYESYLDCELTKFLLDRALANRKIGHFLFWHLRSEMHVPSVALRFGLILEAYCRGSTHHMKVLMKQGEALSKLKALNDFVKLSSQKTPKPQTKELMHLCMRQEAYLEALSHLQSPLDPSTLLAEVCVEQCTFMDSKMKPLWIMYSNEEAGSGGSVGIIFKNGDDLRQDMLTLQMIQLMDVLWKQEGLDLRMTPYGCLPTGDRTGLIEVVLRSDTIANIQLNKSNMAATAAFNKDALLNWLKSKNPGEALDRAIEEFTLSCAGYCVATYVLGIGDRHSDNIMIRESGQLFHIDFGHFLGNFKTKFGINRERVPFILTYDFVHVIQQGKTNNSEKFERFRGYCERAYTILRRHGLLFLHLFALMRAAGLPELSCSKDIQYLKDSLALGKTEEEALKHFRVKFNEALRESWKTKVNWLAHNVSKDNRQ
The experiment in a line: Inhibition of PI3Kdelta (unknown origin) at 10 uM relative to control.

A further test relates to HEK293T. The experiment in a line: Activation of BMP signaling in HEK293T cells expressing BRE-Vent2 luciferase reporter gene assessed as BRE activation by measuring increase in luciferase activity measured after 22 hrs in the presence of BMP-4 by dual-luciferase assay. In kind it is cell-based. The conditions noted are these: Homo sapiens, filed as activator. In general terms: Reporter assays use an easily measured gene product as a stand-in for the process of interest.

The target of test [6] is T2, Phosphatidylinositol 4,5-bisphosphate 3-kinase catalytic subunit beta isoform (Homo sapiens, UniProt P42338). The experiment in a line: Inhibition of PI3Kbeta (unknown origin) at 10 uM relative to control.
Target sequence in this assay (P42338 whole entry, looked up, canonical isoform): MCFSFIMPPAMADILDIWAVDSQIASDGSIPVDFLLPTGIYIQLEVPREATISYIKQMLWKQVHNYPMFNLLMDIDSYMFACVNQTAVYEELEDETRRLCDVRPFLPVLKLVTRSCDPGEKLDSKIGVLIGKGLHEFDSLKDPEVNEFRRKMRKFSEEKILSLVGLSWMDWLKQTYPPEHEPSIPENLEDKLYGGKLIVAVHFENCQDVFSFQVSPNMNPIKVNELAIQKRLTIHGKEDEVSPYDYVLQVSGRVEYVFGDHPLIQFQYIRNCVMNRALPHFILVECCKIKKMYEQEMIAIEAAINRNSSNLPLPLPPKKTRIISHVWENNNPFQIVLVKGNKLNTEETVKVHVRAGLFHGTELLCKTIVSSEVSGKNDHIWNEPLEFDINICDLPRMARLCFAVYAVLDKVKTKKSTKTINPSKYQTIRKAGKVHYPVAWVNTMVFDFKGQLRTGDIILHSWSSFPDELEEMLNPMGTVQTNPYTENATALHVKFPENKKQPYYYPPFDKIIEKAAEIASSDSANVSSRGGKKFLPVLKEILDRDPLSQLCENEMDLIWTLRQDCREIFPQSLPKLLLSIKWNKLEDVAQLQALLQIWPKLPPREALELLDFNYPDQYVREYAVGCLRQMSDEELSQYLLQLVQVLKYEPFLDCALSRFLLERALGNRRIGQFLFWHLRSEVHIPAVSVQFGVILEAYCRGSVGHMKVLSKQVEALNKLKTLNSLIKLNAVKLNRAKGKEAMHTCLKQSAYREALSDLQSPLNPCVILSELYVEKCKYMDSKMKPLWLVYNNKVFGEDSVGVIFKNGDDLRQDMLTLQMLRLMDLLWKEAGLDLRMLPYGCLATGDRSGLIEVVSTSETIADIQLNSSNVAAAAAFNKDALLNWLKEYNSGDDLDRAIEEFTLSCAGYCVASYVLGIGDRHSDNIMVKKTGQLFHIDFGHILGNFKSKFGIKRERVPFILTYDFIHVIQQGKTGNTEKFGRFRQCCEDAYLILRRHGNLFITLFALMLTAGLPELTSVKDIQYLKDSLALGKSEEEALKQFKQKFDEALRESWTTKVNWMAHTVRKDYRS
The target in test [7] is T3, Phosphatidylinositol 4,5-bisphosphate 3-kinase catalytic subunit alpha isoform (Homo sapiens, UniProt P42336). The experiment in a line: Inhibition of PI3Kalpha (unknown origin) at 10 uM relative to control.
Test [8] addresses Casein kinase I isoform alpha (Homo sapiens, UniProt P48729). The experiment in a line: Inhibition of CK1alpha (unknown origin).
The target of test [9] is Casein kinase I isoform epsilon (Homo sapiens, UniProt P49674). The experiment in a line: Inhibition of CK1epsilon (unknown origin).
Test [10] has as its target T4, Phosphatidylinositol 4,5-bisphosphate 3-kinase catalytic subunit gamma isoform (Homo sapiens, UniProt P48736). The experiment in a line: Inhibition of PI3Kgamma (unknown origin) at 10 uM relative to control.
Target sequence in this assay (P48736 whole entry, looked up, canonical isoform): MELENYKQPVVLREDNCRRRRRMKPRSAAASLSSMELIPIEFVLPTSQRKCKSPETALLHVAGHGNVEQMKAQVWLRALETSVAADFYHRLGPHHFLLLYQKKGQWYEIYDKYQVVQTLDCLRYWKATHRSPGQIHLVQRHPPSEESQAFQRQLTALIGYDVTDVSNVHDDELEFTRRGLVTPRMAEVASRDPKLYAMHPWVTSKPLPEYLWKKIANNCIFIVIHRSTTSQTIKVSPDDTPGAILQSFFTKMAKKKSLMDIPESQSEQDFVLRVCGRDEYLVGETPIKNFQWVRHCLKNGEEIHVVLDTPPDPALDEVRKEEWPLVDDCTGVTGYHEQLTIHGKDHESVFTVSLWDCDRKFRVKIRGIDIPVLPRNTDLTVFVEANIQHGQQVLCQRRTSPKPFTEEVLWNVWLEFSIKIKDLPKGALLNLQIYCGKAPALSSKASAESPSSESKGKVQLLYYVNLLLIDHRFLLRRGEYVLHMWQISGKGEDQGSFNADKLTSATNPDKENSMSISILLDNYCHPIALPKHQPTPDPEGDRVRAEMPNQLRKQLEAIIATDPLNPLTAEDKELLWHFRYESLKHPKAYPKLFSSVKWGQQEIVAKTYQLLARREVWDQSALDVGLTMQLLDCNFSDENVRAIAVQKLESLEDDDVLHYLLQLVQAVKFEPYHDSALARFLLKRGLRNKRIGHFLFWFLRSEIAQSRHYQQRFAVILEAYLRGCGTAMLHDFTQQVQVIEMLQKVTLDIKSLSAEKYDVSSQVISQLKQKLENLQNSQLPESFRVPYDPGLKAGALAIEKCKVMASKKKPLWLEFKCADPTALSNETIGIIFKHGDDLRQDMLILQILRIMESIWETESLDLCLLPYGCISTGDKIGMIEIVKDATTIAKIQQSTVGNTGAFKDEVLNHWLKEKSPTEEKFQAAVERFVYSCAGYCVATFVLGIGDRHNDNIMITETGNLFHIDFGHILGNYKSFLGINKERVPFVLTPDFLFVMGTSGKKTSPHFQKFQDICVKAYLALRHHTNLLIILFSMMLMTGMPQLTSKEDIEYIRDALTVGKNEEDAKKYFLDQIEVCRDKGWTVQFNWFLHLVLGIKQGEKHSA
Test [11] has as its system C2C12. The experiment in a line: Induction of osteogenic differentiation in mouse C2C12 cells assessed as ALP activity preincubated with compound in the presence of BMP-4 for 72 hrs followed by substrate addition and measured after 1 hrs in the presence of BYL719 by luminescence based assay. It counts as functional, cell-based. The conditions noted are these: time 73.0 hrs, DDE = dose-dependent effect.

The test system of test [12] is C2C12. The experiment in a line: Induction of osteogenic differentiation in mouse C2C12 cells assessed as ALP activity preincubated with compound in the presence of BMP-4 for 72 hrs followed by substrate addition and measured after 1 hrs in the presence of PIK93 by luminescence based assay. In kind it is functional, cell-based. The conditions noted are these: time 73.0 hrs, DDE = dose-dependent effect.

The target of test [13] is DNA-dependent protein kinase catalytic subunit (Homo sapiens, UniProt P78527). The experiment in a line: Inhibition of DNA-PK (unknown origin).
Test [14] concerns the target T3, Phosphatidylinositol 4,5-bisphosphate 3-kinase catalytic subunit alpha isoform. The experiment in a line: Inhibition of PI3Kalpha (unknown origin).
For test [15], the target named is T5, Phosphatidylinositol 4,5-bisphosphate 3-kinase catalytic subunit delta isoform (Homo sapiens, UniProt O00329).
T5 sequence (O00329 whole entry): T1 sequence (whole entry)
The experiment in a line: Inhibition of PI3Kdelta (unknown origin).

Test [16] concerns the target T2, Phosphatidylinositol 4,5-bisphosphate 3-kinase catalytic subunit beta isoform. The experiment in a line: Inhibition of PI3Kbeta (unknown origin).
Target sequence in this assay (P42338 whole entry, canonical isoform): as the sequence (P42338 whole entry, looked up, canonical isoform) above
The nature of test [17]: Inhibition of DMH-1 induced cardiogenesis in mouse embryonic stem cells transfected with Myh6-GFP pretreated with compound followed by DMH-1 stimulation for 24 hrs in the presence of BMP-4 with replacement of media on day 7 and 9 and measured after 11 days by DAPI-staining based assay. The note with it: embryonic stem cell.
Test [18] deals with T4, Phosphatidylinositol 4,5-bisphosphate 3-kinase catalytic subunit gamma isoform. The experiment in a line: Inhibition of PI3Kgamma (unknown origin).
Target sequence in this assay (P48736 whole entry, canonical isoform): as the sequence (P48736 whole entry, looked up, canonical isoform) above

Casein kinase I isoform delta, sequence (P48730 whole entry, canonical isoform): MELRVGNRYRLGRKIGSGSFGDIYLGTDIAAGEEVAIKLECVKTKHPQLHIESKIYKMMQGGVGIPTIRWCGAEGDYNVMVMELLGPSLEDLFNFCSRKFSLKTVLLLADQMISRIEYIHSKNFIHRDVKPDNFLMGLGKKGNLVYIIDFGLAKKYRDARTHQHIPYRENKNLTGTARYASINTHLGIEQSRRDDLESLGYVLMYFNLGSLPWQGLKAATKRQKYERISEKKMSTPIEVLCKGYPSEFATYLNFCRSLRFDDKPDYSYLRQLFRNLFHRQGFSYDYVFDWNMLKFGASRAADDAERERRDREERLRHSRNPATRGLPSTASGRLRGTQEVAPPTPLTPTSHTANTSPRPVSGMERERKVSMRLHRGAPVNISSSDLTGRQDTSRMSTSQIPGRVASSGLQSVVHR
Casein kinase I isoform epsilon, sequence (P49674 whole entry, canonical isoform): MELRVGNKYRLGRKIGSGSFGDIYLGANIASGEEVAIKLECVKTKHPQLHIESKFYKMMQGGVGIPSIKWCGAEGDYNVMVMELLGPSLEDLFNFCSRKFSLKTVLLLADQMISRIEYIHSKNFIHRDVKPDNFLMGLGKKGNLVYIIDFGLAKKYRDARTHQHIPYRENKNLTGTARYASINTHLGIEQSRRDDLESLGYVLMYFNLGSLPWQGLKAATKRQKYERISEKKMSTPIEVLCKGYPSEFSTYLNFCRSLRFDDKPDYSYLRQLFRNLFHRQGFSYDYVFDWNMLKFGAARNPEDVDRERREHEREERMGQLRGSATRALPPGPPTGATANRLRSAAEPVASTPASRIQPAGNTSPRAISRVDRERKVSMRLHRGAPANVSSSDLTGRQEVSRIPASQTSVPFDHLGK
T3 sequence (P42336 whole entry, canonical isoform): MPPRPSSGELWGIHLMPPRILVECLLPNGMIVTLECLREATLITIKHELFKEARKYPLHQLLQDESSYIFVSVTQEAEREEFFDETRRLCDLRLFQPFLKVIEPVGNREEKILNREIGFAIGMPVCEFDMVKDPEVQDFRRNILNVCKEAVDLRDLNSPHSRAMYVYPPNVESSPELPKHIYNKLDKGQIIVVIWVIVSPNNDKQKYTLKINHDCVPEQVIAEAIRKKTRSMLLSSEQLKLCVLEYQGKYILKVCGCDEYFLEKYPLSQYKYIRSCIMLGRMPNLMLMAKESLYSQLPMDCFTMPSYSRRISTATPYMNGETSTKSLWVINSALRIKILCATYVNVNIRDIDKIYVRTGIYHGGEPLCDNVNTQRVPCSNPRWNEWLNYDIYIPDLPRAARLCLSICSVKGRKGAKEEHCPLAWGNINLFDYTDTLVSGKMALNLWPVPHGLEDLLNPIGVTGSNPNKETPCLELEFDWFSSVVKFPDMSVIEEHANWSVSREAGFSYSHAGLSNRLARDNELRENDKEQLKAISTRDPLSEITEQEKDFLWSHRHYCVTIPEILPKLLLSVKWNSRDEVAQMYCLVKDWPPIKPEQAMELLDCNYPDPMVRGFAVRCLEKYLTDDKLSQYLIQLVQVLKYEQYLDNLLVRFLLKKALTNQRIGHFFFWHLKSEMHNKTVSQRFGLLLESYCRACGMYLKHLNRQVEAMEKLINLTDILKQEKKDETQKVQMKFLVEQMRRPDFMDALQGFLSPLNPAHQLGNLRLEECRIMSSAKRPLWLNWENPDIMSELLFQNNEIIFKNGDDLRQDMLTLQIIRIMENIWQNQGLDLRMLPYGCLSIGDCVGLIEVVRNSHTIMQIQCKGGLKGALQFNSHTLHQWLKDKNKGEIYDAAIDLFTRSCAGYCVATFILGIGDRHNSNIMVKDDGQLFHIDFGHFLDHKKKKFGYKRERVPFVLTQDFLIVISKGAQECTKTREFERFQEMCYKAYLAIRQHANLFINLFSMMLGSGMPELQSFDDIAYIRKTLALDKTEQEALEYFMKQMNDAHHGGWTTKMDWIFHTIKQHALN
Phosphatidylinositol 3-kinase catalytic subunit type 3 (Homo sapiens), sequence (Q8NEB9 whole entry, canonical isoform): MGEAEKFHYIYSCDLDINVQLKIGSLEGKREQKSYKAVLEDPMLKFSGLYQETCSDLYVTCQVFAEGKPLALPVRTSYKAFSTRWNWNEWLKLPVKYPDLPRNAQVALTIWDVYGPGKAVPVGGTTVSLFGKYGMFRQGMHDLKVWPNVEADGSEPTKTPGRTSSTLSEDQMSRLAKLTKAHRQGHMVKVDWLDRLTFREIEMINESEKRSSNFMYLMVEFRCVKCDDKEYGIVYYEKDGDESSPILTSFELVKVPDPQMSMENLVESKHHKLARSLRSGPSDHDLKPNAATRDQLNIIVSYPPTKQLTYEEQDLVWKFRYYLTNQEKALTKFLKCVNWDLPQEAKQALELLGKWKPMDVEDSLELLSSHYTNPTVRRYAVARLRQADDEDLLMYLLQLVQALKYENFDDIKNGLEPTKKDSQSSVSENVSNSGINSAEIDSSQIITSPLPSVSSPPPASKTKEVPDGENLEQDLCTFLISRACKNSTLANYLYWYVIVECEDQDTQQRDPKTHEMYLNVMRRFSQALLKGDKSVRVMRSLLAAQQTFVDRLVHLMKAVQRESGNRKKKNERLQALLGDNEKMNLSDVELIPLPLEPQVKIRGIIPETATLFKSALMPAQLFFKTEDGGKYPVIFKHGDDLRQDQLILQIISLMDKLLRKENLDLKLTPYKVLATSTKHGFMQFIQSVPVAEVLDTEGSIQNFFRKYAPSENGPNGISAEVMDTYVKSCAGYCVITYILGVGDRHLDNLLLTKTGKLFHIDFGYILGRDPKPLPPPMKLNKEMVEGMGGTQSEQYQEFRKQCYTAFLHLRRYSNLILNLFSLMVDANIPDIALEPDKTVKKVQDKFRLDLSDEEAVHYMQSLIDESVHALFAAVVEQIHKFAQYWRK

As to `Nc1nc2ccc(Br)cc2c2nc(-c3ccco3)nn12`, the outcome with C2C12 [1] and in the test with HEK293T was Active. The IC50 in test [2] is 120 nM; in [8], 220 nM; in test [9], 380 nM. Besides, in the test with C2C12 [3], the Activity is 554%. Moreover, the inhibition in [4] is 6%; in test [5], 75%; in [6], 27%; in test [7], 80%; in test [10], 93%.

`Nc1ccc2nc(N)n3nc(-c4ccco4)nc3c2c1`: the result in the test with HEK293T was Active.

With `Nc1nc2ccc(F)cc2c2nc(-c3ccco3)nn12`, the outcome in the test on C2C12 [1] and with HEK293T was Active.

Take `CC(=O)/N=c1/[nH]c(C)c(-c2ccc(Cl)c(S(=O)(=O)NCCO)c2)s1`: the outcome in the test on C2C12 [1] was Active.

In the case of `Cc1nc(NC(=O)N2CCC[C@H]2C(N)=O)sc1-c1ccnc(C(C)(C)C(F)(F)F)c1`, the outcome in the test on C2C12 [1] was Active.

As for `Fc1cccc(-n2cnc3c(NCc4nc5c(F)c(F)ccc5[nH]4)nc(N4CCOCC4)nc32)c1`, the Activity result with C2C12 [11] and with C2C12 [12] was “Dde” throughout.

In the case of `Nc1nc2ccccc2c2nc(-c3ccco3)nn12`, the outcome in the test on C2C12 [1] and with HEK293T was Active.

Turning to `Nc1nc2ccc(O)cc2c2nc(-c3ccco3)nn12`, the half-inhibitory concentration (IC50) in test [2] was 3640 nM; in test [8], 6180 nM; in test [9], more than 10000 nM. Besides, the Activity in the test on C2C12 [3] was determined as 184%. Moreover, the inhibition in [4] is 29%; in test [5], 11%; in test [6], 0%; in [7], 72%; in test [10] it was 79%. In the test with HEK293T, the outcome was Active.

On to `Nc1nc2ccc(Cl)cc2c2nc(-c3ncco3)nn12`, for which the outcome with C2C12 [1] and in the test on HEK293T was Active. In addition, the results for the IC50 in [2], in [8] and in [9] were 430 nM, 2920 nM and 2070 nM, respectively. Moreover, the Activity with C2C12 [3] is listed as 166%. Moreover, the inhibition in test [4] turned out to be 10%; in test [5], 79%; in [6] it was 29%; in test [7], 82%; in test [10] it was 91%.

`Nc1nc2ccc(Cl)cc2c2nc(-c3ccco3)nn12` [CGS-15943]: the result in the test on C2C12 [1] and with HEK293T was Active. In addition, the half-maximal inhibitory concentration (IC50) in test [2] stood at 240 nM; in test [13] it was 140 nM; in [14] it was 1280 nM; in test [15], 970 nM; in test [16], 8480 nM; in test [8], 820 nM. The half-inhibitory concentration (IC50) was found to be 490 nM in test [9], 500 nM in test [17] and 110 nM in [18]. The Activity in the test with C2C12 [3] was determined as 290%. For the same molecule, the inhibition worked out at 5% in test [4]; 34% in [5]; 39% in test [6]; 86% in test [7]; 96% in [10].

These data come from ChEMBL document CHEMBL5096233, “Phenotypic Discovery of Triazolo[1,5-c]quinazolines as a First-In-Class Bone Morphogenetic Protein Amplifier Chemotype” (J Med Chem, 2022).
